The values below come from patent US11242344B2, “(4-hydroxypyrrolidin-2-yl)-heterocyclic compounds and methods of use thereof” (Genentech, Inc., priority 2017, dated 2022).

One experiment relates to MYC expression. Nature of the experiment: Inhibition of MYC expression in MV-4-11 cells. The class given is cell-based. The conditions noted are these: 4 h; for IC50: QuantiGene 2.0, geometric mean; for Maximum Inhibition (%): maximum inhibition of MYC expression. How it is done: Pharmacologic inhibition of MYC is achievable through targeting BET bromodomains through small molecule binder or degrader mechanisms. Such inhibitors may have clinical utility given the widespread pathogenetic role of MYC in cancer. See, e.g., Mertz J, et al., “Targeting MYC dependence in cancer by inhibiting BET bromodomains,” (2011) Proc. Natl. Acad. Sci. USA, Vol. 108 (40), pp. 16669-16674.
To determine the inhibition of MYC expression, MV-4-11 cells (ATCC) were plated at 10,000 cells per well in 96-well plates in RPMI1640 media supplemented with 10% fetal bovine serum and 2 mM L-glutamine. Test compounds diluted in DMSO were transferred to the cell plates, keeping final DMSO concentration consistent at 0.1%, and incubated for 4 h at 37° C. Lysis and analysis for MYC expression were carried out using QuantiGene 2.0 reagents (Affymetrix/eBioscience, probe set cat #SA-50182) and following the vendor's instructions. Luminescence was read using an EnVision plate reader (PerkinElmer) and IC50s generated in Genedata Screener using a 4-parameter non-linear regression fit.
Effective degraders will surpass this and inhibit >95% of MYC, thus following the maximum inhibition within this assay provides valuable SAR. Where more than one measurement was performed for the same assay, the value reported is the geometric mean of all values.

A further experiment concerns the target VHL Elongin B/C complex (Homo sapiens (Human), UniProt P40337). Nature of the experiment: Fluorescence Polarization (FP) VHL Binding Assay. The following applies: VHL binding, FP assay; geometric mean where more than one measurement. The essentials:
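Readout is polarization of a TAMRA-coupled VHL ligand (1.67 nM final) displaced from the VHL(E55-D213)/Elongin B/C complex (2.64 nM final) after 1 h incubation at room temperature in pH 8.0 Tris buffer with 1% DMSO. Data normalized to no-VHL and compound-free controls, with compound fluorescence subtracted, and fitted by four-parameter curve for IC50.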

For experiment [1], the target named is NanoLuc VHL fusion protein (Homo sapiens (Human), UniProt P40337). In words: VHL HEK-293 BRET Assay (NanoBRET Target Engagement). The class given is cell-based. The following applies: geometric mean where more than one measurement. The gist of the method:
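HEK293 cells stably expressing NanoLuc-VHL, 2 h with compound titration and 1 uM final tracer, then Nano-Glo substrate plus extracellular NanoLuc inhibitor. BRET ratio 610/460 nm, background-corrected with no-tracer wells, normalised to DMSO and 10 uM unlabeled VHL antagonist controls; IC50 by four-parameter fit.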

Some results are limits rather than exact numbers.

Sequence of VHL Elongin B/C complex (P40337 whole entry, looked up): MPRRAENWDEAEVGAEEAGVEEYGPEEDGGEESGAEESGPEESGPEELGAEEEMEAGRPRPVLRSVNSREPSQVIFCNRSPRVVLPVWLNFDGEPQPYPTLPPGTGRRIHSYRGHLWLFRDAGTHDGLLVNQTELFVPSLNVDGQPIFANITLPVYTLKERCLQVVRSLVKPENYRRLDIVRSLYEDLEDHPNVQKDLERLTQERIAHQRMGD
Sequence of VHL Elongin B/C complex (Q15370 whole entry partner, looked up): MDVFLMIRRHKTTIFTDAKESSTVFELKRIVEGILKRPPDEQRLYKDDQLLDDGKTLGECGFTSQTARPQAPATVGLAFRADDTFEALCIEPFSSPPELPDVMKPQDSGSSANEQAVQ
Sequence of VHL Elongin B/C complex (Q15369 whole entry partner, looked up): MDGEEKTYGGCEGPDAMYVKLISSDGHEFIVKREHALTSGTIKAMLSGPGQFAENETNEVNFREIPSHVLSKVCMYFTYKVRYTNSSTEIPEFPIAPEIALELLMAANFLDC
Sequence of NanoLuc VHL fusion protein (P40337 whole entry, looked up, the tested form may be a part): as the sequence (P40337 whole entry, looked up) above
Sequence of NanoLuc VHL fusion protein (Q15370 whole entry partner, looked up, the tested form may be a part): as the sequence (Q15370 whole entry partner, looked up) above
Sequence of NanoLuc VHL fusion protein (Q15369 whole entry partner, looked up, the tested form may be a part): as the sequence (Q15369 whole entry partner, looked up) above

With `Cc1ncsc1-c1ccc([C@]2(C)NC(C3C[C@@H](O)CN3C(=O)C(c3cc(OCCCCCNC(=O)c4cc5c(cc4CS(C)(=O)=O)-c4cn(C)c(=O)c6[nH]cc(c46)CN5c4ncc(F)cc4F)no3)C(C)C)=NC2=O)cc1` (single isomer, unassigned) [Example 1001.2], in the experiment with MYC expression, the IC50 worked out at 1.71 nM and the “Maximum Inhibition (%)” value was 98.4%. Further, the IC50 on VHL Elongin B/C complex came to 0.795 µM.
With `Cc1ncsc1-c1ccc([C@]2(C)NC(C3C[C@@H](O)CN3C(=O)[C@@H](NC(=O)CCCCCCCCCCNC(=O)c3cc4c(cc3CS(C)(=O)=O)-c3cn(C)c(=O)c5[nH]cc(c35)CN4c3ncc(F)cc3F)C(C)(C)C)=NC2=O)cc1` (single isomer, unassigned) [Example 1005.1], the IC50 came to 255 µM at VHL Elongin B/C complex and 64.6 µM in experiment [1].
For `Cc1ncsc1-c1ccc([C@]2(C)NC(C3C[C@@H](O)CN3C(=O)C(c3cc(OCCCCCNC(=O)c4cc5c(cc4CS(C)(=O)=O)-c4cn(C)c(=O)c6[nH]cc(c46)CN5c4ncc(F)cc4F)no3)C(C)C)=NC2=O)cc1` (single isomer, unassigned) [Example 1001.1], the results for the IC50 in the experiment on MYC expression and at VHL Elongin B/C complex were 17.4 nM and 16.9 µM, respectively. In addition, in the experiment on MYC expression, the “Maximum Inhibition (%)” value was determined as 82.3%.
The like results for `Cc1ncsc1-c1ccc([C@]2(C)NC(C3C[C@@H](O)CN3C(=O)C(c3cc(OCCCCCNC(=O)c4cc5c(cc4CS(C)(=O)=O)-c4cn(C)c(=O)c6[nH]cc(c46)CN5c4ncc(F)cc4F)no3)C(C)C)=NC2=O)cc1` (single isomer, unassigned) [Example 1001.3] were, in that order, 27.4 nM, above 100 µM and 79.2%.
